According to PMC11219860, “A chemogenetic approach for dopamine imaging with tunable sensitivity” (Nature Communications, 2024):

Assays:
msADRA1a = target: T1, msADRA1a (Mus musculus, UniProt P97718); assay: NanoBit complementation assay of mini-Gq recruitment; type: cell-based
T1 construct: expressed in transfected cells; host or cells: HEK293T
Protocol: To measure the effect of DETQ on mini-G protein recruitment by different GPCRs we used a Nanoluciferase (NanoBit)-based complementation assay[26],[27]. For this HEK293T cells were seeded in six-well plates (Techno Plastic Products) at a density of 300,000 cells per well and co-transfected with plasmids encoding either hmDRD1, msDRD1, msDRD2, msDRD5, msADRA1a, msβ2AR or ms5HT6 carrying a C-terminally fused SmBiT, in combination with the corresponding mini-G protein probe[78] (mini-Gs: for DRD1, DRD5, β2AR, 5HT6R; mini-Gq: for ADRA1a; or mini-Gi: for DRD2), which were N-terminally fused to LgBiT, in a 1:1 DNA ratio using Effectene transfection reagent (Qiagen). […] The plate was incubated at 37 °C for 30 min, before the luminescence signal was measured at 37 °C using a Tecan Spark plate reader before and after the manual addition of 25 µl of either ligand solution (final concentrations ranging from 1 nM to 100 µM), pure Fluorobrite-DMEM or 25 µl of a DETQ solution (1 µM final concentration).
For in vitro luminescence assays, ligand traces were divided by buffer traces, the area under the curve for each trace was calculated using GraphPad Prism, values were normalized and fitted as dose response curve. […] The statistical significance was determined using Welch’s ANOVA followed by Dunnett’s multiple comparison test (comparison of ligand or vehicle to ligand). […]

[1] = target: T2, mouse DA transporter (DAT) (Mus musculus, UniProt Q61327); assay: Fast-scan cyclic voltammetry of DA release in striatal slices; conditions: bath application: DETQ 200 nM; cocaine 5 µM
T2 construct: Lack of DETQ effect on the endogenous DA transporter; from tissue; host or cells: mouse striatal brain slices
Protocol: Striatal DA release was measured using fast-scan cyclic voltammetry (FSCV) with a carbon fiber electrode (CFE; diameter 7 µm, length 50–100 µm) positioned approximately 100 µm below the surface of the slice. The CFE was scanned across a triangular waveform (−0.4 to +1.3 V, 400 V/s) at 10 Hz, and DA release was evoked by single-pulse electrical stimulation (30 µA, 0.5 ms) with an inter-stimulus interval of 180 s. DA release was evoked in the presence of DHBE (1 µM) to block nicotinic acetylcholine receptors. Peak background-subtracted DA oxidation current was measured at +0.6 V, and drugs were washed on after establishing a stable baseline.

DRD1-MSNs = assay: Whole-cell electrophysiology of DRD1-MSNs in dorsal striatum brain slices; type: cell-based, mouse
Protocol: For experiments involving SKF38393 application, to identify DRD1 receptor (DRD1)-positive neurons in the dorsal striatum, DRD1:cre mice injected with AAV5-hSyn-dlox-ChrimsonR-tdTomato were used. 3–4 weeks after viral injection, mice were anesthetized with 5% isoflurane and euthanized by decapitation. […] Slices were kept at 34 °C for 10–20 minutes and then at room temperature until recordings. In the recording chamber, slices were superfused with ACSF at 30–32 °C. Patch pipettes (3–7 MΩ) were pulled from borosilicate glass pipettes (GC150T-10, Harvard Apparatus). The internal solution contained (in mM): potassium gluconate 130, MgCl2 4, MgATP 3.4, Na3GTP 0.1, creatine phosphate 10, HEPES 5, and EGTA 1.1. The membrane potential was measured using EPC 10 USB Patch Clamp Amplifiers (HEKA). The access resistance was monitored by a hyperpolarizing step of −10 mV. The identification of DRD1-positive neurons was performed by the presence of red fluorescence protein and photo-evoked current or potential (@2 Hz, 10 ms duration, 2 pulses or 500 ms continuous pulse. light source: Colibri 7, Zeiss; 630 nm wavelength, 1 mW). To assess the excitability of neurons, positive currents were injected (0–500 pA) and the number of action potentials was counted at each current step. To measure input resistance, negative currents were injected (−200 to 0 pA, every 50 pA, 500 ms), as previously described. The resting membrane potential was measured at 0 pA current input.
Action potentials were evoked by current injection (50–500 pA, 500 ms) in current-clamped neurons. Neurons were recorded from in the presence of picrotoxin (100 µM), CGP55485 (0.3 µM), DNQX (10 µM), and MK801 (10 µM) to block GABAA, GABAB, AMPA and NMDA receptors, respectively. DA (10 µM) was applied to brain slices in the presence of cocaine (5 µM) to prevent reuptake.

msDRD1 = target: T3, msDRD1 (Mus musculus, UniProt Q61616); conditions: cited from earlier work
T3 construct: expressed in transfected cells; host or cells: HEK293T

[2] = test system: 14 other human targets (including D5, D2, Beta-1, Beta-2 and 5-HT6); design: method as in Hao et al., 2019; conditions: at 10 uM; ref Hao et al., 2019; cited from earlier work

T3 sequence (Q61616 whole entry): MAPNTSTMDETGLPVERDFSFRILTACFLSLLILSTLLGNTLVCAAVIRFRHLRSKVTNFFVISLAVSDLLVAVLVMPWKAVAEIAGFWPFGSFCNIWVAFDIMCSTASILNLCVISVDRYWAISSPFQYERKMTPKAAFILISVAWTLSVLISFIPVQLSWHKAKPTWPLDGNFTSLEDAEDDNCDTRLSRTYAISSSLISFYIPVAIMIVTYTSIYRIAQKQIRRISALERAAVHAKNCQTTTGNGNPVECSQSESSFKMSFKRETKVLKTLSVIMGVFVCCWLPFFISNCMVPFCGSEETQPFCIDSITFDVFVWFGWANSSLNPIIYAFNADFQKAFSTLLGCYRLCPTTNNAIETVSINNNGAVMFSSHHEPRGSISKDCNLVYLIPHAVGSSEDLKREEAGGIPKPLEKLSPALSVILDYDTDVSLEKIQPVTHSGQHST
T1 sequence (P97718 whole entry): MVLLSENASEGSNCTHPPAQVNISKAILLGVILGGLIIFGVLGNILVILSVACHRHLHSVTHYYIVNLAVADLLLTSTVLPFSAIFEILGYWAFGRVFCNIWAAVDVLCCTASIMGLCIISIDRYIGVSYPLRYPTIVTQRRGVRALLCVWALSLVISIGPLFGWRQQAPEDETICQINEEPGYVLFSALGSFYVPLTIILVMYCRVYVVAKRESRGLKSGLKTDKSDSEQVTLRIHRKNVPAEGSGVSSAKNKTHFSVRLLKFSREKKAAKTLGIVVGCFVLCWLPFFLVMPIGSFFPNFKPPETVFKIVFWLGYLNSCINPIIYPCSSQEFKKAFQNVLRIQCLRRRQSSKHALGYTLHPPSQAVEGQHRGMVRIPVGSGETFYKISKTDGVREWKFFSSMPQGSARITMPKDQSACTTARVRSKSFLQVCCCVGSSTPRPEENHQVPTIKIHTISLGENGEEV
T2 sequence (Q61327 whole entry): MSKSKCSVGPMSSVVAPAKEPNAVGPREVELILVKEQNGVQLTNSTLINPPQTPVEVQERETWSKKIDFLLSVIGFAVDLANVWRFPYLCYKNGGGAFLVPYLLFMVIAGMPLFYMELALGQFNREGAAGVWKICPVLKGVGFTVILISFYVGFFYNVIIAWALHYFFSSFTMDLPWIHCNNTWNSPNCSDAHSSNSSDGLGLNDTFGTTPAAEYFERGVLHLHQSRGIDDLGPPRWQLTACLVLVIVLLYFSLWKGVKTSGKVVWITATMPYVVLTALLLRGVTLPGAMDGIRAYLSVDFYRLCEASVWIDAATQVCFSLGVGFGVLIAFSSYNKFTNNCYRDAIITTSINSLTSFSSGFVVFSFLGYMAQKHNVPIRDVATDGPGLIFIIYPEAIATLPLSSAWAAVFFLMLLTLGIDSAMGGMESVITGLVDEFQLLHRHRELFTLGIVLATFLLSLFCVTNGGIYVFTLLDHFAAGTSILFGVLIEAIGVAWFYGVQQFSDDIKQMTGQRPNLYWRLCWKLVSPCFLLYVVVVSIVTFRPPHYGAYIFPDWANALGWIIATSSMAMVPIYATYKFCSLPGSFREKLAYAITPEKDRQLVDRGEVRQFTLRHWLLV

## C[C@H]1c2cccc(C(C)(C)O)c2C[C@H](CO)N1C(=O)Cc1c(Cl)cccc1Cl [DETQ, 2-(2,6-dichlorophenyl)-1-((1S,3R)-3-(hydroxymethyl)-5-(2-hydroxypropan-2-yl)-1-methyl-3,4-dihydroisoquinolin-2(1H)-yl)ethan-1-one]
msADRA1a; DETQ 1 µM alone
  agonist mode: direct agonist effect: no direct agonist effect
msADRA1a; DETQ 1 µM, NE
  allosteric modulator mode: effect on agonist dose-response: No allosteric effect
[1]
  decay constant (tau) of DA signals: no effect
  peak DA release: no effect
DRD1-MSNs; DA 10 µM, DETQ 200 nM
  number of action potentials: DA with versus without DETQ: no significant difference
DRD1-MSNs; DETQ 200 nM superfusion
  resting membrane potential or excitability of DRD1-MSNs: No noticeable changes
msDRD1
  Kb: 312 nM
  fold less potent on msDRD1 than on hmDRD1: > 30 fold
msDRD1; potentiation of dopamine induced activation of cAMP, ref Hao et al., 2019, Wang et al., 2018
  selectivity for human vs mouse D1 in potentiator mode: 30 x
msDRD1; rodent (rat or mouse), ref Hao et al., 2019, Wang et al., 2018
  partial potentiation of dopamine (% of max potentiation): 45-53%
[2]
  activity in potentiator mode: no activity was found
